Active and inactive are the calls of the source. How the calls were made is not given here.
The molecules below were run on Clostridioides difficile clinical isolate growth, OD600, 24 h (assay: inhibitors of Clostridioides difficile proliferation – 4-point retest, confirmation (AID 1224921)).
`CO[C@@H]1CN(C)C(=O)c2cc(NC(=O)Nc3ccc(F)cc3)ccc2OC[C@@H](C)NC[C@@H]1C` was tested, and the AC50 was > 60 µM (inactive). `CO[C@@H]1CN(C)C(=O)c2ccc(NC(=O)C3CCC3)cc2OC[C@@H](C)N(C(=O)Nc2ccc(C(F)(F)F)cc2)C[C@H]1C` showed an AC50 of 11.6 µM. In the case of `COc1cccc(C#Cc2cnc3c(c2)C(=O)N([C@H](C)CO)C[C@H](C)[C@@H](CN(C)C)O3)c1`, the AC50 is reported as 33.2 µM. `Cc1cc(C(=O)Nc2cccc3c2O[C@@H](CN(C)Cc2ccc(-c4ccccc4)cc2)[C@H](C)CN([C@@H](C)CO)C3=O)n(C)n1` showed an AC50 of 1.01 µM. Molecule `CCNC(=O)C[C@@H]1CC[C@H]2[C@@H](COC[C@@H](O)CN2C(=O)Nc2ccc(Cl)c(Cl)c2)O1` has an AC50 of 2.6 µM. Work on `C[C@H](CO)N1C[C@H](C)[C@H](CN(C)C(=O)Nc2cccc3ccccc23)Oc2c(NC(=O)Nc3ccc(C(F)(F)F)cc3)cccc2C1=O` yielded an AC50 of 31.7 µM. `C[C@H]1CN([C@@H](C)CO)C(=O)CCCn2nncc2CO[C@@H]1CN(C)C(=O)Nc1ccc(C(F)(F)F)cc1` showed an AC50 of 17.7 µM. `CO[C@H]1CN(C)C(=O)c2cc(NC(=O)Nc3cc(Cl)cc(Cl)c3)ccc2OC[C@@H](C)NC[C@@H]1C` showed an AC50 of 14.7 µM. `CCCNC(=O)C[C@H]1CC[C@@H]2[C@H](COC[C@H](O)CN2C(=O)Nc2ccc(Cl)c(Cl)c2)O1` gave an AC50 of 3.77 µM. `O=C(C[C@H]1CC[C@H]2[C@@H](COC[C@H](O)CN2S(=O)(=O)c2ccccc2)O1)NCC1CCCCC1` showed an AC50 of 13.5 µM. For `COc1ccccc1-c1ccc2c(c1)O[C@H](CN(C)C(=O)c1ccccc1)[C@H](C)CN([C@H](C)CO)S2(=O)=O`, the AC50 was > 60 µM (inactive). For `CCNC(=O)C[C@H]1CC[C@@H]2[C@H](COC[C@H](O)CN2C(=O)Nc2ccc(C(F)(F)F)cc2)O1`, the AC50 was 3.45 µM. `O=C(C[C@@H]1CC[C@H]2[C@@H](COC[C@@H](O)CN2C(=O)Nc2ccc(Cl)c(Cl)c2)O1)NCc1ccc(F)cc1` showed an AC50 of 1.92 µM. `O=C(C[C@@H]1CC[C@@H]2[C@H](COC[C@H](O)CN2C(=O)Nc2ccc(Cl)c(Cl)c2)O1)NCc1ccc(F)cc1` was tested, and the AC50 was 0.968 µM. `Cc1noc(C)c1NC(=O)Nc1cccc2c1O[C@H](CN(C)Cc1ccc(Oc3ccccc3)cc1)[C@H](C)CN([C@@H](C)CO)C2=O` showed an AC50 of 9.38 µM. `O=C(C[C@@H]1CC[C@@H]2[C@H](COC[C@H](O)CN2C(=O)Nc2ccc(C(F)(F)F)cc2)O1)NCC1CC1` showed an AC50 of 1.14 µM. Molecule `O=C(C[C@H]1CC[C@H]2[C@@H](COC[C@@H](O)CN2C(=O)Nc2ccc(C(F)(F)F)cc2)O1)NCC1CC1` has an AC50 of 1.18 µM. `C[C@@H]1CN([C@H](C)CO)S(=O)(=O)c2ccc(C#Cc3ccccc3)cc2O[C@H]1CN(C)C` was tested, and the AC50 was 28.4 µM. In the case of `O=C(C[C@H]1CC[C@H]2[C@@H](COC[C@H](O)CN2C(=O)Nc2cc(Cl)cc(Cl)c2)O1)N1CCOCC1`, the AC50 is reported as 4.04 µM. With `CN(C)CC(=O)N1[C@H](C#N)[C@H](c2ccc(C#CC3CCCCC3)cc2)[C@H]1CO` the AC50 was 14.2 µM. Work on `O=C(NCC[C@H]1CC[C@@H](NC(=O)C2CC2)[C@@H](CO)O1)Nc1ccc(C(F)(F)F)cc1` yielded an AC50 of 1.69 µM. With `N#C[C@@H]1[C@H](c2ccc(C#Cc3ccc(F)cc3)cc2)[C@@H](CO)N1C(=O)C1CCCC1` the AC50 was > 70 µM (inactive). `C[C@H](CO)N1C[C@H](C)[C@H](CN(C)C(=O)Nc2ccccc2)Oc2c(NC(=O)Nc3ccc(C(F)(F)F)cc3)cccc2C1=O` was tested, and the AC50 was 26.5 µM. `Cc1ccc(S(=O)(=O)N2C[C@@H](O)COC[C@H]3O[C@H](CC(=O)NCc4ccc(Cl)c(Cl)c4)CC[C@@H]32)cc1` was tested, and the AC50 was > 60 µM (inactive). Work on `CNC[C@H]1OCCCC[C@@H](C)Oc2ccc(NC(=O)Nc3ccc(C(F)(F)F)cc3)cc2C(=O)N([C@H](C)CO)C[C@H]1C` yielded an AC50 of 15.4 µM. For `CO[C@@H](CN(C)Cc1cc(F)ccc1F)[C@@H](C)CN(C(=O)Nc1ccc(C(F)(F)F)cc1)[C@H](C)CO`, the AC50 was 6.79 µM. For `C[C@@H]1CN([C@H](C)CO)C(=O)c2cc(NS(=O)(=O)c3ccc(Cl)cc3)ccc2O[C@@H](C)CCCCO[C@H]1CN(C)Cc1ccc(C(F)(F)F)cc1`, the AC50 was > 60 µM (inactive). Molecule `C[C@@H]1CCCCO[C@@H](CN(C)CC2CCCCC2)[C@H](C)CN([C@@H](C)CO)C(=O)c2cc(NC(=O)Nc3ccc(C(F)(F)F)cc3)ccc2O1` has an AC50 of 12.6 µM. `O=C(C[C@H]1CC[C@@H]2[C@H](COC[C@@H](O)CN2C(=O)Nc2ccc(Cl)c(Cl)c2)O1)NCc1ccccc1` was tested, and the AC50 was 4.01 µM. `CO[C@H]1CN(C)C(=O)c2ccc(NC(=O)Nc3cc(Cl)cc(Cl)c3)cc2OC[C@@H](C)NC[C@@H]1C` showed an AC50 of 15.9 µM. For `CO[C@@H](CN(C)C(=O)C1CC1)[C@@H](C)CN(C(=O)Nc1ccc(C(F)(F)F)cc1)[C@@H](C)CO`, the AC50 was 3.31 µM. Molecule `CO[C@H]1CN(C)C(=O)c2cc(NC(=O)Nc3cc(Cl)cc(Cl)c3)ccc2OC[C@H](C)NC[C@@H]1C` has an AC50 of 9.09 µM. With `O=C(C[C@@H]1CC[C@@H]2[C@H](COC[C@H](O)CN2C(=O)Nc2ccc(Cl)c(Cl)c2)O1)NCc1ccc(Cl)cc1` the AC50 was 0.915 µM. Molecule `O=C(NCC[C@H]1CC[C@@H](NC(=O)C2CC2)[C@H](CO)O1)Nc1ccc(C(F)(F)F)cc1` has an AC50 of 9.05 µM. Molecule `O=C(C[C@H]1CC[C@H]2[C@@H](COC[C@H](O)CN2C(=O)Nc2ccc(C(F)(F)F)cc2)O1)NCCc1ccncc1` has an AC50 of 2.37 µM. With `O=C(C[C@@H]1CC[C@H]2[C@@H](COC[C@H](O)CN2C(=O)Nc2ccc(Cl)c(Cl)c2)O1)NCc1ccccc1` the AC50 was 3.53 µM. `Cc1noc(C)c1S(=O)(=O)Nc1ccc2c(c1)C(=O)N([C@@H](C)CO)C[C@H](C)[C@@H](CN(C)Cc1ccc3c(c1)OCO3)OCCCC[C@@H](C)O2` was tested, and the AC50 was 11.7 µM. `CCCNC(=O)C[C@@H]1CC[C@H]2[C@@H](COC[C@H](O)CN2C(=O)Nc2ccc(Cl)c(Cl)c2)O1` showed an AC50 of 5.98 µM. For `O=C(C[C@@H]1C[C@H]2c3cc(NC(=O)NC4CCCC4)ccc3O[C@H]2[C@H](CO)O1)NCc1ccc2c(c1)OCO2`, the AC50 was > 60 µM (inactive). `C[C@@H]1CCCCO[C@@H](CN(C)CC2CC2)[C@H](C)CN([C@H](C)CO)C(=O)c2cc(NC(=O)Nc3ccc(C(F)(F)F)cc3)ccc2O1` showed an AC50 of 15.9 µM. Work on `O=C(C[C@@H]1CC[C@@H]2[C@H](COC[C@H](O)CN2C(=O)Nc2ccc(C(F)(F)F)cc2)O1)NCC1CCCCC1` yielded an AC50 of 1.09 µM. With `C[C@@H]1CN([C@@H](C)CO)C(=O)c2cc(NC(=O)Nc3ccc(C(F)(F)F)cc3)ccc2O[C@@H](C)CCCCO[C@H]1CN(C)Cc1ccc2c(c1)OCO2` the AC50 was 23.9 µM. Molecule `COc1ccc(CN(C)C[C@@H]2OCCCC[C@H](C)Oc3ccc(NC(=O)Nc4ccc(C(F)(F)F)cc4)cc3C(=O)N([C@H](C)CO)C[C@H]2C)cc1` has an AC50 of 3.24 µM. With `CO[C@H](CN(C)C(=O)C1CC1)[C@@H](C)CN(C(=O)Nc1ccc(C(F)(F)F)cc1)[C@@H](C)CO` the AC50 was 6.86 µM. `O=C(C[C@H]1CC[C@H]2[C@@H](COC[C@H](O)CN2C(=O)Nc2cc(Cl)cc(Cl)c2)O1)N1CCCCC1` gave an AC50 of 3.29 µM. For `CO[C@H]1CN(C)C(=O)c2cc(NC(=O)Nc3ccc(Cl)c(Cl)c3)ccc2OC[C@H](C)NC[C@@H]1C`, the AC50 was 8.68 µM. `O=C(C[C@H]1CC[C@H]2[C@@H](COC[C@H](O)CN2C(=O)Nc2ccc(Cl)c(Cl)c2)O1)NCc1ccncc1` was tested, and the AC50 was 0.575 µM. `C[C@H]1CCCCO[C@H](CN(C)Cc2ccccc2)[C@@H](C)CN([C@@H](C)CO)C(=O)c2cc(NC(=O)Nc3ccc(C(F)(F)F)cc3)ccc2O1` gave an AC50 of 18.2 µM. For `CN(C)CC(=O)N[C@@H]1CC[C@@H](CCNC(=O)Nc2ccc(C(F)(F)F)cc2)O[C@H]1CO`, the AC50 was 4.63 µM. Work on `CO[C@@H](CN(C)Cc1cc(F)ccc1F)[C@@H](C)CN(C(=O)Nc1ccc(C(F)(F)F)cc1)[C@@H](C)CO` yielded an AC50 of 13.1 µM. With `N#C[C@H]1[C@@H](c2ccc(C#CC3CCCC3)cc2)[C@H](CO)N1C(=O)Nc1ccc(F)cc1` the AC50 was > 60 µM (inactive). `O=C(C[C@@H]1CC[C@H]2[C@@H](COC[C@H](O)CN2C(=O)Nc2ccc(Cl)c(Cl)c2)O1)NCc1ccncc1` showed an AC50 of 3.77 µM. `COc1ccc(CN(C)C[C@H]2OCCCC[C@H](C)Oc3ccc(NC(=O)Nc4ccc(C(F)(F)F)cc4)cc3C(=O)N([C@@H](C)CO)C[C@@H]2C)cc1` was tested, and the AC50 was 16.6 µM. `C[C@H]1CN([C@@H](C)CO)S(=O)(=O)c2ccc(C#Cc3cccc(F)c3)cc2O[C@H]1CN(C)C` gave an AC50 of 24.8 µM. Molecule `NC(=O)[C@@H]1[C@H]2C(=O)O[C@H](c3ccccc3)[C@H](c3ccccc3)N2[C@H](c2ccccc2OCCO)[C@@]12C(=O)Nc1ccccc12` has an AC50 of 32.8 µM. In the case of `CO[C@@H]1CN(C)C(=O)c2ccc(NC(=O)Nc3cc(Cl)cc(Cl)c3)cc2OC[C@H](C)NC[C@@H]1C`, the AC50 is reported as 8.07 µM. With `CCCNC(=O)C[C@@H]1CC[C@H]2[C@@H](COC[C@@H](O)CN2C(=O)Nc2ccc(Cl)c(Cl)c2)O1` the AC50 was 2.59 µM. With `O=C(Nc1ccc(-c2ccccc2)cc1)[C@@H]1[C@@H](CO)[C@@H]2Cn3c(cccc3=O)[C@@H]2N1CC1CCCCC1` the AC50 was > 60 µM (inactive). With `O=C(C[C@@H]1CC[C@H]2[C@@H](COC[C@@H](O)CN2C(=O)Nc2cc(Cl)cc(Cl)c2)O1)N1CCOCC1` the AC50 was 10.7 µM. `CO[C@H]1CN(C)C(=O)c2cc(NC(=O)Nc3cc(Cl)cc(Cl)c3)ccc2OC[C@H](C)NC[C@H]1C` gave an AC50 of 11.6 µM. In the case of `O=C(C[C@H]1CC[C@@H]2[C@H](COC[C@H](O)CN2C(=O)Nc2ccc(Cl)c(Cl)c2)O1)NCc1ccccc1`, the AC50 is reported as under 1.95 µM. Molecule `CO[C@@H](CN(C)S(=O)(=O)c1cn(C)cn1)[C@H](C)CN(C(=O)Nc1ccc(C(F)(F)F)cc1)[C@@H](C)CO` has an AC50 of 2.44 µM. `CO[C@H](CN(C)C(=O)C1CC1)[C@H](C)CN(C(=O)Nc1ccc(C(F)(F)F)cc1)[C@H](C)CO` was tested, and the AC50 was 2.98 µM. With `CC(=O)N[C@H]1CC[C@H](CCNC(=O)Nc2ccc(C(F)(F)F)cc2)O[C@@H]1CO` the AC50 was 9.65 µM. `C[C@@H]1CN([C@H](C)CO)C(=O)Cc2cc(NS(=O)(=O)c3ccc(Cl)cc3)ccc2O[C@H]1CN(C)CC1CCCCC1` showed an AC50 of 18 µM. Work on `O=C(C[C@@H]1CC[C@@H]2[C@H](COC[C@@H](O)CN2C(=O)Nc2cc(Cl)cc(Cl)c2)O1)N1CCOCC1` yielded an AC50 of 14.2 µM. `O=C(NCC[C@@H]1CC[C@H](NC(=O)C2CC2)[C@@H](CO)O1)Nc1ccc(C(F)(F)F)cc1` was tested, and the AC50 was 1.95 µM. For `CO[C@H]1CN(C)C(=O)c2cc(NC(C)=O)ccc2OC[C@@H](C)N(CCc2ccccc2)C[C@H]1C`, the AC50 was > 60 µM (inactive). With `C/C=C/c1ccc2c(c1)O[C@H](CN(C)C(=O)c1ccc(F)cc1)[C@H](C)CN([C@H](C)CO)S2(=O)=O` the AC50 was > 60 µM (inactive). Work on `O=C(C[C@@H]1CC[C@@H]2[C@H](COC[C@@H](O)CN2C(=O)Nc2ccc(Cl)c(Cl)c2)O1)NCc1ccc(F)cc1` yielded an AC50 of 1.87 µM. In the case of `CO[C@@H]1CN(C)C(=O)c2ccc(NC(=O)Nc3cc(Cl)cc(Cl)c3)cc2OC[C@H](C)NC[C@H]1C`, the AC50 is reported as 7.81 µM.

From PubChem BioAssay AID1224921 (Broad Institute, 2016)
